Test results from US9447028B2, “Therapeutic aryl-amido-aryl compounds and their use” (King's College London, priority 2009, dated 2016).

Experiments:
Format in all cases: cell-based
RARγ = molecular target: T1, RARγ (Homo sapiens, UniProt P13631); experiment: Transactivation assay for RAR gamma (gal4-RAR fusion, luciferase reporter, COS-7 cells); conditions: ratio of test compound EC50 to that of atRA; inactive = no agonist action at the highest concentration tested
T1 construct: gal4 (fusion partner); expressed in transfected cells; host or cells: COS-7
T1 sequence (P13631 185-419 limits assumed): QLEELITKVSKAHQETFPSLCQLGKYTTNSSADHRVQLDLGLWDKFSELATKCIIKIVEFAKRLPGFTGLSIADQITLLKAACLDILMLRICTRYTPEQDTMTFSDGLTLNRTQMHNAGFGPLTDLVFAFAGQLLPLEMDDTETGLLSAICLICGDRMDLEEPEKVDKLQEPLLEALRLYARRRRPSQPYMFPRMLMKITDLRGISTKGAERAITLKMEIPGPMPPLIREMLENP
Experimental: (§1) Transcriptional transactivation assays were performed with gal4 fusion receptor constructs, created using each of the RAR ligand binding domains, co-transfected with the pFR-luc (Stratagene™) reporter construct in COS-7 cells.
(§2) Briefly, on day 1, 96 well plates were seeded with 8000 cells per well then left to recover overnight. On day 2, the cells were co-transfected with 100 ng of reporter plasmid and 10 ng of the appropriate receptor plasmid per well using lipofectamine (Invitrogen™). On day 3, the lipofectamine containing media was replaced by a DMEM without phenol red, followed by the addition of test compound dissolved in 1 μL of DMSO to each well's 100 μL total volume. Finally, on day 4, the cells were lysed and their luciferase substrate was provided by the BrightGlo™ reagent (Promega™), the plates were then read on the MicroBeta TriLux™ (Perkin Elmer™).
(§3) Where replicate data has been generated, the data are quoted as a ratio of the mean EC50 from the separate experiments.

RARβ = molecular target: T2, RARβ (Homo sapiens, UniProt P10826); experiment: Transactivation assay for RAR beta (gal4-RAR fusion, luciferase reporter, COS-7 cells); conditions: ratio of test compound EC50 to that of atRA; inactive = no agonist action at the highest concentration tested
T2 construct: gal4 (fusion partner); expressed in transfected cells; host or cells: COS-7
T2 sequence (P10826 183-417 limits assumed): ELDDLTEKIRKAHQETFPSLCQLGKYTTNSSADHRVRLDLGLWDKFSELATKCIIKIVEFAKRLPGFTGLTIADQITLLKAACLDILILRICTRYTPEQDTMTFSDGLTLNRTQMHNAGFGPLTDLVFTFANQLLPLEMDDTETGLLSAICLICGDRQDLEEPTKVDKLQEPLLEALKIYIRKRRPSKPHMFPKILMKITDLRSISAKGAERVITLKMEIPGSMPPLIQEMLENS
Experimental: as §1, §2, §3

RARα = molecular target: T3, RARα (Homo sapiens, UniProt P10276); experiment: Transactivation assay for RAR alpha (gal4-RAR fusion, luciferase reporter, COS-7 cells); conditions: for RARα/RARβ ratio (*): fold-selectivity for RARα over RARβ; for RARα activity ratio: ratio of test compound EC50 to that of atRA on the same plate; for Improvement (RARα activity ratio) / Improvement (RARα/RARβ ratio): compared with XXX-03
T3 construct: gal4 (fusion partner); expressed in transfected cells; host or cells: COS-7
T3 sequence (P10276 183-417 limits assumed): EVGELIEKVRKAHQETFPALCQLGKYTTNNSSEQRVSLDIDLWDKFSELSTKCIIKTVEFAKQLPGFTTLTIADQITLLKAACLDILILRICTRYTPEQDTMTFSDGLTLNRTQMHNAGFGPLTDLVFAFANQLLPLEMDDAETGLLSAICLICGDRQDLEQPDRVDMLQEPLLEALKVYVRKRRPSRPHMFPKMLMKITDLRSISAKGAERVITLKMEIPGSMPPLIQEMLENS
Experimental: as §1, §2, §3

| RARγ activity ratio (RARγ) | RARβ activity ratio (RARβ) | RARα/RARβ ratio (*) (RARα) | RARα activity ratio (RARα) | Improvement (RARα activity ratio) (RARα) | Improvement (RARα/RARβ ratio) (RARα) | increase in RARα activity (RARα; compared with XXX-01) [fold] | increase in RARα versus RARβ selectivity (RARα; compared with XXX-01) [fold] | Compound |
| --- | --- | --- | --- | --- | --- | --- | --- | --- |
| 32500 | 1727 | 338 | 5.1 |  |  |  |  | CC(C)Oc1cc(C(=O)Nc2ccc(C(=O)O)c(F)c2)cc(OC(C)C)c1Br [AAA-108, 4-(4-Bromo-3,5-diisopropoxybenzamido)-2-fluorobenzoic acid] |
| 375 | 39 | 23 | 1.7 |  |  |  |  | CCC(CC)Oc1cc(C(=O)Nc2ccc(C(=O)O)cc2)cc(Cl)c1OC [AAA-101, 4-(3-Chloro-4-methoxy-5-(pentan-3-yloxy)benzamido)benzoic acid] |
| 10833 | 92 | 46 | 2.0 |  |  |  |  | Cc1cc(NC(=O)c2cc(Cl)c(OC3CCC3)c(OC3CCC3)c2)ccc1C(=O)O [AAA-093, 4-(3-Chloro-4,5-di(cyclobutyloxy)benzamido)-2-methylbenzoic acid] |
| >12000 | 1921 | 120 | 16 |  |  |  |  | CCOc1cc(C(=O)Nc2ccc(C(=O)O)c(C)c2)cc(OCC)c1Br [AAA-110, 4-(4-Bromo-3,5-diethoxybenzamido)-2-methylbenzoic acid] |
| 812 | 92 | 34 | 2.7 |  |  |  |  | CC(C)Oc1cc(C(=O)Nc2ccc(C(=O)O)c(F)c2)cc(Cl)c1OC(C)C [AAA-095, 4-(3-Chloro-4,5-diisopropoxybenzamido)-2-fluorobenzoic acid] |
| 220 | 117 | 6 | 19 |  |  |  |  | CCOc1c(F)cc(C(=O)Nc2ccc(C(=O)O)cc2)cc1F [AAA-073, 4-(4-Ethoxy-3,5-difluorobenzamido)benzoic acid] |
| inactive | 1300 | 2.4 | 533 |  |  |  |  | O=C(O)c1ccc(NC(=O)c2cc(Cl)c(OCc3ccncc3)c(Cl)c2)cc1 [AAA-012, 4-(3,5-Dichloro-4-(pyridin-4-ylmethoxy)benzamido)benzoic acid] |
| 5328 | 714 | 8 | 85 |  |  |  |  | COc1c(OC(C)C)cc(C(=O)Nc2ccc(C(=O)O)cc2)cc1OC(C)C [AAA-062, 4-(3,5-Diisopropoxy-4-methoxybenzamido)benzoic acid] |
| 2162 | 142 | 157 | 0.89 |  |  |  |  | CC(C)Oc1cc(C(=O)Nc2ccc(C(=O)O)cc2)cc(C(F)(F)F)c1OC(C)C [AAA-120, 4-(3,4-Diisopropoxy-5-(trifluoromethyl)benzamido)benzoic acid] |
| 60833 | 976 | 140 | 7 |  |  |  |  | CCOc1c(Cl)cc(C(=O)Nc2ccc(C(=O)O)c(F)c2)cc1C(F)(F)F [AAA-068, 4-(3-Chloro-4-ethoxy-5-(trifluoromethyl)benzamido)-2-fluorobenzoic acid] |
| inactive | 214 | 2.0 | 108 |  |  |  |  | CCOc1c(Cl)cc(NC(=O)c2ccc(C(=O)O)cn2)cc1Cl [AAA-020, 6-(3,5-Dichloro-4-ethoxyphenylcarbamoyl)nicotinic acid] |
| inactive | 64000 | 173.0 | 370 |  |  |  |  | CCOc1cc(C(=O)Nc2ccc(C(=O)O)cc2)cc(OCC)c1OCC [AAA-028, 4-(3,4,5-triethoxy-benzoylamino)-benzoic acid] |
| 55172 | 208 | 46 | 4.5 |  |  |  |  | CCOc1cc(C(=O)Nc2ccc(C(=O)O)c(F)c2)cc(OC(CC)CC)c1Cl [AAA-116, 4-(4-Chloro-3-ethoxy-5-(pentan-3-yloxy)benzamido)-2-fluorobenzoic acid] |
| inactive | 131 |  |  |  |  | 65 | 3 | CCOc1c(Cl)cc(C(=O)Nc2ccc(C(=O)O)cc2)cc1C(F)(F)F [AAA-025, 4-(3-Chloro-4-ethoxy-5-(trifluoromethyl)benzamido)benzoic acid] |
| 20000 | 656 | 2852 | 0.23 |  |  |  |  | O=C(Nc1ccc(C(=O)O)c(O)c1)c1cc(Cl)c(OC2CCC2)c(OC2CCC2)c1 [AAA-094, 4-(3-Chloro-4,5-di(cyclobutyloxy)benzamido)-2-hydroxybenzoic acid] |
| 5850 | 9525 |  |  | ~3.1-fold | ~46-fold |  |  | COc1c(Cl)cc(C(=O)Nc2ccc(C(=O)O)cc2)cc1Cl [AAA-030, 4-(3,5-Dichloro-4-methoxy-benzoylamino)-benzoic acid] |
| 75000 | 216 | 135 | 1.6 |  |  |  |  | CC(C)Oc1cc(C(=O)Nc2ccc(C(=O)O)c(O)c2)cc(Cl)c1OC(C)C [AAA-091, 4-(3-Chloro-4,5-diisopropoxybenzamido)-2-hydroxybenzoic acid] |
| 25172 | 150 | 58 | 2.6 |  |  |  |  | CCOc1cc(C(=O)Nc2ccc(C(=O)O)c(C)c2)cc(OC(CC)CC)c1Cl [AAA-115, 4-(4-Chloro-3-ethoxy-5-(pentan-3-yloxy)benzamido)-2-methylbenzoic acid] |
| 367000 | 1250 | 250 | 5.0 |  |  |  |  | CCOc1c(Cl)cc(C(=O)Nc2ccc(C(=O)O)c(O)c2)cc1OCC1CC1 [AAA-090, 4-(3-Chloro-5-(cyclopropylmethoxy)-4-ethoxybenzamido)-2-hydroxybenzoic acid] |
| 136 | 74 |  |  | ~100-fold | ~12-fold |  |  | CCOc1c(Cl)cc(C(=O)Nc2ccc(C(=O)O)c(C)c2)cc1Cl [AAA-019, 4-(3,5-Dichloro-4-ethoxybenzamido)-2-methylbenzoic acid] |
| 4920 | 1226 | 37 | 33 |  |  |  |  | CCOc1c(Cl)cc(C(=O)Nc2ccc(C(=O)O)c(O)c2)cc1Cl [AAA-057, 4-(3,5-Dichloro-4-ethoxybenzamido)-2-hydroxybenzoic acid] |
| 550 | 4200 | 145 | 29 |  |  |  |  | CCOc1c(OC2CCCC2)cc(C(=O)Nc2ccc(C(=O)O)cc2)cc1OC1CCCC1 [AAA-058, 4-(3,5-Bis(cyclopentyloxy)-4-ethoxybenzamido)benzoic acid] |

| Compound | RARγ activity ratio (RARγ) | RARβ activity ratio (RARβ) | RARα/RARβ ratio (*) (RARα) | RARα activity ratio (RARα) | Improvement (RARα activity ratio) (RARα) | Improvement (RARα/RARβ ratio) (RARα) | increase in RARα activity (RARα; compared with XXX-01) [fold] | increase in RARα versus RARβ selectivity (RARα; compared with XXX-01) [fold] |
| --- | --- | --- | --- | --- | --- | --- | --- | --- |
| O=C(O)c1ccc(NC(=O)c2cc(Cl)c(OC3CCC3)c(Cl)c2)cc1 [AAA-011, 4-(3,5-Dichloro-4-cyclobutoxybenzamido)benzoic acid] | 21800 | 2960 |  |  | ~2.6-fold | ~12-fold |  |  |
| CC(C)(C)Oc1cc(C(=O)Nc2ccc(C(=O)O)cc2)cc(OC(C)(C)C)c1OC(C)(C)C [AAA-060, 4-(3,4,5-Tri-tert-butoxybenzamido)benzoic acid] | 30 | 2267 | 50 | 45 |  |  |  |  |
| CCOc1c(Cl)cc(C(=O)Nc2ccc(C(=O)O)c(C)c2)cc1OC1CCC1 [AAA-096, 4-(3-Chloro-5-(cyclobutoxy)-4-ethoxybenzamido)-2-methylbenzoic acid] | 7895 | 215 | 67 | 3.2 |  |  |  |  |
| Cc1cc(NC(=O)c2cc(Cl)c(OC(C)(C)C)c(Cl)c2)ccc1C(=O)O [AAA-056, 4-(4-tert-Butoxy-3,5-dichlorobenzamido)-2-methylbenzoic acid] | 22 | >770 | >250 | 3.1 |  |  |  |  |
